# Test results as given in patent US20260007644A1, “NIMODIPINE COMPOSITION FREE OF ETHANOL AND PHOSPHOLIPID FOR MOIST HEAT STERILIZATION AND METHOD FOR PREPARING SAME” (BEIJING DELIVERY PHARMACEUTICAL TECHNOLOGY CO., LTD, priority 2022, published 2026).
# Assays:
# [1] = cited from earlier work
# [2] = Description / appearance of the concentrates (visual inspection); format: physicochemical; settings: 1.00 g active ingredient, HS15 45.00 g, propylene glycol 54.00 g, sterilized at 121° C. for 15 minutes
# Description: The formation of solution upon dilution with 5% dextrose injection and the stability of the diluted solutions (the concentration of nimodipine is 0.1 mg/mL) were observed.
# According to the Guidelines for the Stability Testing of Drug Substances and Preparations in Section 9001 of the General Notices, Pharmacopoeia of the People's Republic of China 2020, Volume IV, the concentrates prepared in Example 10 were tested at a temperature of 60° C. or under the light with an intensity of 5000 Lux, and sampled at the end of the 5th, 10th and 30th days to examine the specified items. • 1.
# Method: visual inspection.
compound,measurement,setting,value
"COCCOC(=O)C1=C(C)NC(C)=C(C(=O)OC(C)C)C1c1cccc([N+](=O)[O-])c1 (racemic) [Nimodipine, 1-methylethyl 2-methoxyethyl (±)-2,6-dimethyl-4-(3-nitrophenyl)-1,4-dihydropyridine-3,5-dicarboxylate]",solubility in water,[1],insoluble in water
C=C1CC[C@@H]2[C@](C)(CO)[C@H](O)CC[C@@]2(C)[C@@H]1C/C=C1/C(=O)OC[C@H]1O [andrographolide],formation of a clear and transparent solution in the system of HS15 and propylene glycol,[2],failed to form clear and transparent solutions
CC[C@@H]([C@H](C)O)n1ncn(-c2ccc(N3CCN(c4ccc(OC[C@@H]5CO[C@@](Cn6cncn6)(c6ccc(F)cc6F)C5)cc4)CC3)cc2)c1=O [posaconazole],formation of a clear and transparent solution in the system of HS15 and propylene glycol,[2],failed to form clear and transparent solutions
COc1cc([C@@H]2c3cc4c(cc3[C@@H](O[C@@H]3O[C@@H]5CO[C@@H](c6cccs6)O[C@H]5[C@H](O)[C@H]3O)[C@H]3COC(=O)[C@H]23)OCO4)cc(OC)c1O [teniposide],formation of a clear and transparent solution in the system of HS15 and propylene glycol,[2],failed to form clear and transparent solutions
ginsenoside,formation of a clear and transparent solution in the system of HS15 and propylene glycol,[2],failed to form clear and transparent solutions
